Measured values taken from ChEMBL document CHEMBL5604062, “ASAP - ZIKV NS2B-NS3 protease fluorescence dose response” (2024).
Where “and” joins values, the source holds several entries; their conditions need not be identical. Identical values can stand only once.

molecular target: Nonstructural protein 3 (Zika virus, UniProt A0A024AXB9); assay: Functional biochemical assay to identify treatments for viral infectious disease that targets Zika NS2B-NS3 protease. Utilizing a direct enzyme activity measurement method, reading the fluorescence intensity is used to characterize the relative potency of inhibitors as IC50.; design: species or system PRVABC59
Sequence (A0A024AXB9 whole entry): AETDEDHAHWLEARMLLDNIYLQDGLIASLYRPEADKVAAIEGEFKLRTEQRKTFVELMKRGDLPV

IC50 | Structure (SMILES)
> 99.5 µM | NCc1ccc(-c2ncc(OCC3CCNCC3)nc2-c2ccc(-c3ccoc3)cc2)cc1
> 99.5 µM | NCc1ccc(-c2ncc(OCC3CCNCC3)nc2-c2ccc(C3CCOCC3)cc2)cc1
> 99.5 µM | CCn1c(=O)c(N2CCCC[C@H](N3CCCC3)C2)nc2ccccc21
> 99.5 µM | NCc1cccc(NC(=O)[C@H](NC(=O)OCc2ccccc2)C(C2CCC2)C2CCC2)c1
> 99.5 µM | CN1CCN(C2CN(C(=O)c3cc(Br)cc(C=O)c3)C2)CC1
> 99.5 µM | CCn1cc(-c2ccnc(N(C)C)c2)nc(N2CC[C@@H](CO)C2)c1=O
12 µM | N#Cc1ccccc1-c1ccc([C@H](NC(=O)OCc2ccccc2)C(=O)Nc2cccc(CN)c2)cc1
17.9 µM | COc1ncccc1-c1ccc([C@@H](NC(=O)OCc2ccccc2)C(=O)Nc2cccc(CN)c2)cc1
> 99.5 µM | CCn1cc(-c2ccc(OC)c(C)c2)nc(N2CC[C@@H](CO)C2)c1=O
> 99.5 µM | Cn1cc(Nc2ccc(S(=O)(=O)Nc3ccc(Cl)cc3C(=O)O)cn2)cn1
> 99.5 µM | NCc1cccc(NC(=O)[C@@H](NC(=O)OCc2ccccc2)c2ccc(-c3ccnc(N)c3)cc2)c1
19.5 µM | O=C(NS(=O)(=O)C1CC1)c1cc(Cl)ccc1NS(=O)(=O)c1ccc(Oc2ccccc2Cl)cc1
5.8 µM | CCc1ccc(-c2ccc([C@@H](NC(=O)OCc3ccccc3)C(=O)Nc3cccc(CN)c3)cc2)cc1
> 99.5 µM | CCn1cc(-c2cncc(OC)c2)nc(N2CC[C@@H](CO)C2)c1=O
> 99.5 µM | O=S(=O)(Nc1ccc(Cl)cc1CO)c1ccc(Oc2ccccc2Cl)cc1
> 99.5 µM | CN1CCN(C2CCN(C(=O)c3cc(C=O)n(C)c3)CC2)CC1
> 99.5 µM | CC[C@H]1CN2CCC[C@H]2CN1c1nc2ccccc2n(CC)c1=O
> 99.5 µM | Cn1nccc1-c1ccc([C@@H](NC(=O)OCc2ccccc2)C(=O)Nc2cccc(CN)c2)cc1
> 99.5 µM | CCn1cc(-c2cccc(CN(C)C)c2)nc(N2CC[C@@H](CO)C2)c1=O
24 µM | CC(C)c1cc(-c2ccc([C@@H](NC(=O)OCc3ccccc3)C(=O)Nc3cccc(CN)c3)cc2)on1
> 99.5 µM | CCn1cc(-c2ccccc2C(C)C)nc(N2CC[C@@H](CO)C2)c1=O
> 99.5 µM | NCc1cccc(NC(=O)[C@@H](NC(=O)OCc2ccccc2)c2ccc(-c3ccnc4[nH]ccc34)cc2)c1
> 99.5 µM | CCn1cc(-c2ccc3c(c2)CCNC3)nc(N2CC[C@@H](CO)C2)c1=O
> 99.5 µM | CCn1cc(-c2ccccc2N)nc(N2CC[C@@H](CO)C2)c1=O
> 99.5 µM | c1ccc2c(CN3CCC(c4nn[nH]n4)CC3)c[nH]c2c1

IC50 | Structure (SMILES)
> 99.5 µM | COC(=O)c1cc(Cl)ccc1NS(=O)(=O)c1ccc(O)cc1
> 99.5 µM | CCn1cc(-c2cnn(C)n2)nc(N2CC[C@@H](CO)C2)c1=O
> 99.5 µM | O=C(O)c1cc(Cl)cc(NS(=O)(=O)c2ccc(Oc3ccccc3Cl)cc2)c1
> 99.5 µM | CCn1cc(-c2ccc3ocnc3c2)nc(N2CC[C@@H](CO)C2)c1=O
> 99.5 µM | CCOc1cccc(N2CC[C@@H](CO)C2)c1
> 99.5 µM | CCn1cc(-c2cccc(-n3cccn3)c2)nc(N2CC[C@@H](CO)C2)c1=O
64.4 µM | NCc1cccc(NC(=O)[C@@H](NC(=O)OCc2ccccc2)c2cccc(Br)c2)c1
> 99.5 µM | N#Cc1cc(F)cc(N2CC[C@H](CO)C2)c1
57.3 µM | Cc1noc(C)c1-c1ccc([C@@H](NC(=O)OCc2ccccc2)C(=O)Nc2cccc(CN)c2)cc1
> 99.5 µM | CCn1cc(-c2cccc(OC)c2F)nc(N2CC[C@@H](CO)C2)c1=O
> 99.5 µM | CCn1cc(-c2cnn(-c3ccccc3)c2)nc(N2CC[C@@H](CO)C2)c1=O
> 99.5 µM | O=C(O)c1cc(Cl)ccc1NS(=O)(=O)c1ccc(N[C@H]2CCCOC2)nc1
> 99.5 µM | CCn1cc(-c2cn(C)nc2C)nc(N2CC[C@@H](CO)C2)c1=O
> 99.5 µM | Cc1cnc(Oc2ccc(S(=O)(=O)Nc3ccc(Cl)cc3C(=O)O)cc2)cn1
> 99.5 µM | Cc1nc(-c2ccc([C@@H](NC(=O)OCc3ccccc3)C(=O)Nc3cccc(CN)c3)cc2)cs1
> 99.5 µM | O=C(O)c1cc(Cl)ccc1NS(=O)(=O)c1ccc(Oc2ccccc2Cl)nc1
> 99.5 µM | Cc1cc(C)c(C(=O)N2C[C@H]3CN(C)CC[C@@]3(CO)C2)cc1C=O
7.03 µM and 8.01 µM | COc1cccc(-c2ccc([C@@H](NC(=O)OCc3ccccc3)C(=O)Nc3cccc(CN)c3)cc2)c1
> 99.5 µM | CN(C)C[C@@]1(O)CCN(C(=O)c2cc(C=O)c[nH]2)C1
7.4 µM | Cc1cccc(-c2ccc([C@@H](NC(=O)OCc3ccccc3)C(=O)Nc3cccc(CN)c3)cc2)c1
> 99.5 µM | COC(=O)c1cc(Cl)ccc1NS(=O)(=O)c1ccc(Oc2ccccc2Cl)nc1
17.3 µM | Cc1ccc(COc2ccc(S(=O)(=O)Nc3ccc(Cl)cc3C(=O)O)cc2)cc1
21 µM | NCc1cccc(N2CCN(C(=O)OCc3ccccc3)[C@H](c3ccc(OCc4ccccc4)cc3)C2=O)c1
> 99.5 µM | NCc1cccc(NC(=O)[C@]2(NC(=O)OCc3ccccc3)CCOc3ccccc32)c1
